Test results taken from ChEMBL document CHEMBL1240436, “Synthesis and biological evaluation of novel 2,4'-bis substituted diphenylamines as anticancer agents and potential epidermal growth factor receptor tyrosine kinase inhibitors” (Eur J Med Chem, 2010).

system: MCF7; assay: Cytotoxicity against human MCF7 cells after 48 hrs by SRB assay; type: functional, cell-based

Row | Compound | IC50 [µM]
1 | COc1ccc(/C=N/NC(=O)c2ccc(Nc3ccccc3C(=O)N/N=C/c3ccc(OC)c(OC)c3)cc2)cc1OC | 0.81
2 | CCn1c(S)nnc1-c1ccc(Nc2ccccc2-c2nnc(S)n2CC)cc1 | 2.38
3 | CCNc1nnc(-c2ccc(Nc3ccccc3-c3nnc(NCC)s3)cc2)s1 | 0.94
4 | C=CCSc1nnc(-c2ccc(Nc3ccccc3-c3nnc(SCC=C)o3)cc2)o1 | 1.05
5 | c1ccc(CSc2nnc(-c3ccc(Nc4ccccc4-c4nnc(SCc5ccccc5)o4)cc3)o2)cc1 | 0.73
6 | Sc1nnc(-c2ccc(Nc3ccccc3-c3nnc(S)o3)cc2)o1 | 2
7 | CN(C)c1ccc(/C=N/NC(=O)c2ccc(Nc3ccccc3C(=O)N/N=C/c3ccc(N(C)C)cc3)cc2)cc1 | 1.23
